From patent publication US8048869B2, “Pharmaceutical composition for use in hormone replacement therapy” (Pantarhei Bioscience B.V., priority 2001, dated 2011)

What was measured:
[1] = target: T1, human sex Hormone Binding Globulin (SHBG) (Homo sapiens, UniProt P04278); experiment: Competitive steroid-binding assay, SHBG; conditions: [3H]DHT or [3H]estradiol as labeled ligands (FIG. 6)
T1 construct: Human SHBG was purified from transgenic mouse serum, as described previously; from tissue; host or cells: serum of mice transgenic for human SHBG
T1 sequence (P04278 30-402): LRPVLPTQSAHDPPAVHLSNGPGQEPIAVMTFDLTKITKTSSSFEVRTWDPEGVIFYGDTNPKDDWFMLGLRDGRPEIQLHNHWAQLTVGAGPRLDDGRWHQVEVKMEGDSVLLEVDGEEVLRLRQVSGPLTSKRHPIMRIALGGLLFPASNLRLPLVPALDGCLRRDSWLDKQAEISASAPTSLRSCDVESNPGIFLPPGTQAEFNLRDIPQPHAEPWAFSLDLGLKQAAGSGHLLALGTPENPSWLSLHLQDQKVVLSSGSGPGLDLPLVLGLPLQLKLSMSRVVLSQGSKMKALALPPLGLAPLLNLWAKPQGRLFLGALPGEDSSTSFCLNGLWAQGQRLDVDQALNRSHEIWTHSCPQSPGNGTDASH
Description: Human SHBG was treated for 30 min at room temperature with a dextran-coated charcoal (DCC) suspension in phosphate buffered saline (PBS) to remove any steroid ligand. After centrifugation (2,000×g for 10 min) to sediment the DCC, the supernatant containing the human SHBG was diluted in PBS to a concentration of 1 nM based on its steroid binding capacity.
After incubation for 1 h at room temperature the. reaction mixtures were placed in an ice bath for a further 15 muin. […] The average amounts of [^3H]labeled ligands bound to SHBG at each concentration of competitor (B) were expressed as a percentage of the average amounts of [^3H]labeled ligands bound to SHBG in the absence of competitor (B0), and were plotted against the concentration of competitor in each assay tube.

OVX-rats [2] = experiment: pQCT densitometry of proximal tibiae, ovariectomized aged rat osteoporosis model; assay type: in vivo; conditions: po, 0.1 mg/kg/day, 4 weeks, proximal tibiae
Description: (§1) The ovariectomized aged rat was used as a model for the human disease osteoporosis. This is an established animal model, recommended by the United States Food and Drug Administration (FDA), to evaluate and assess potential agents for osteoporosis prevention and therapy. The anti-resorptive efficacy of estetrol (E4) was tested by ex vivo measuring total and trabecular bone mineral density and bone strength after 4 weeks of treatment at necropsy. 17α-ethinyl-estradiol (EE) and vehicle (1% ethanol/arachidis oil) served as controls in this bioassay.
(§2) Three months old female Sprague-Dawley rats were either sham-operated (Sham) or ovariectomized (OVX) one day prior to commencement of the dosing study. Animals were anesthetized using a ketamine/xylazine anesthetic mixture and underwent a bilateral ovariectomy or were sham-treated. A section of hair on the dorsal surface was shaved and an incision made overlying the lumbar region of the spine. The skin was separated from the underlying fascia so that a second incision could be made through the abdominal musculature approximately caudal to the kidneys. The ovaries were then exteriorized and removed and the musculature was closed with a single suture. The skin incision was closed using surgical staples.
Ten animals per treatment group were orally dosed once per day for four consecutive weeks. […] Vehicle control was daily administered to one group of OVX-animals and sham-operated rats. After treatment, anesthetized rats were subjected to cardiac puncture and asphyxiated by CO2 inhalation. Tibiae and femura were removed, cleaned of soft-tissue and fixed and stored in 70% ethanol/saline at 4° C. (tibia) or saline at 4° C. (femura) until fuirther analysis.
Ex vivo peripheral Quantitative Computed Tomography (pQCT) was performed on the excised left tibiae using a Stratec XCT-RM and associated software (Stratec Medizintechnik GmbH, Pforzheim; Germany, software version 5.40). The scans were performed at 12% of the total length from the proximal end of the tibiae. The positions were verified using scout views and one 0.5-mm slice perpendicular to the long axis of the tibial shaft was acquired from each site. The scans were analyzed using a threshold for delineation of the external boundary. The total and trabecular bone mineral content, area and density at each site were determined. Furthermore, pQCT data for mean total bone mineral density are depicted in FIG. 1.

OVX-rats [3] = experiment: Indentation test of distal femur (bone biomechanical strength), OVX rat; assay type: in vivo; conditions: po, 0.1 mg/kg/day, 4 weeks, distal femur
Description: as §1, §2
Ten animals per treatment group were orally dosed once per day for four consecutive weeks. The dosing commenced 1 day after surgical removal of the ovaries and was administered by oral gavage using a syringe and stainless steel gavage needle at doses of 0.1 mg/kg /day EE, or either 2.5, 0.5 or 0.1 mg/kg/day E4. Vehicle control was daily administered to one group of OVX-animals and sham-operated rats. After treatment, anesthetized rats were subjected to cardiac puncture and asphyxiated by CO2 inhalation. Tibiae and femura were removed, cleaned of soft-tissue and fixed and stored in 70% ethanol/saline at 4° C. (tibia) or saline at 4° C. (femura) until fuirther analysis.
Ex vivo evaluation of bone biomechanical strength was performed with an indentation test at the distal femura. Prior to mechanical testing femura were rinsed in cold saline and carefully cleaned of any remaining adherent soft tissue. A 3-mm segment of the distal femoral metaphysis was cut directly proximal to the femoral condyle with a low-speed diamond saw under constant saline irrigation. The load was applied with a cylindrical indenter (with a flat testing face of 1.6 mm diameter) to the center of marrow cavity on the distal face of the segment. The indenter was allowed to penetrate the cavity at a constant displacement of 6 mm/min to a depth of 2 mm before load reversal.
The maximum load, stiffness and energy absorbed were determined from load displacement curves. Ultimate strength was calculated by dividing the maximum load by the indenter area. Furthermore, mean ultimate strength values are depicted in FIG. 2. […] Reductions in maximum load, stiffness, energy and ultimate strength were −68%, −68%, −27% and −68%, respectively, clearly accompanying the bone mineral density loss in estrogen deficient rats.

C[C@]12CCC(=O)C[C@@H]1CC[C@@H]1[C@@H]2CC[C@]2(C)[C@@H](O)CC[C@@H]12 [5α-dihydrotestosterone]
relative binding affinity for human SHBG [1]: in this order, show an increased relative binding affinity

C[C@]12CC[C@H]3[C@@H](CCC4=CC(=O)CC[C@@]43C)[C@@H]1CC[C@@H]2O [testosterone]
relative binding affinity for human SHBG [1]: in this order, show an increased relative binding affinity

C#C[C@]1(O)CC[C@H]2[C@@H]3CCc4cc(O)ccc4[C@H]3CC[C@@]21C [EE, 17α-ethinyl estradiol, reference compound]
Mean Total Bone Mineral Area (OVX-rats [2]): 13.87 mm^2 | Mean Total Bone Mineral Content (OVX-rats [2]): 9.66 mg/mm | Mean Total Bone Mineral Density (OVX-rats [2]): 697.48 mg/mL | Mean Trabecular Bone Mineral Area (OVX-rats [2]): 6.24 mm^2 | Mean Trabecular Bone Mineral Content (OVX-rats [2]): 1.81 mg/mm | Mean Trabecular Bone Mineral Density (OVX-rats [2]): 290.16 mg/mL | Energy (OVX-rats [3]): 0.53 mJ | Maximum load (OVX-rats [3]): 9.05 N | Stiffness (OVX-rats [3]): 169.12 N/mm | Ultimate strength (OVX-rats [3]): 4.80 N/mm2
